# Results from patent US9776990B2, “Isoindolone derivatives” (AbbVie Inc., priority 2012, dated 2017).
# Read-outs that look alike come from different tables or passages of the source.
# Tests used:
# BRD4 (BDII_E352-M457) = BRD4 (BDII_E352-M457) (Homo sapiens (Human), UniProt O60885); assay: TR-FRET bromodomain binding assay, BRD4 second bromodomain; details: His-tagged BD2, 30 nM Alexa647 probe
# Description: (§1) A time-resolved fluorescence resonance energy transfer (TR-FRET) assay was used to determine the affinities of compounds of the Examples listed in Table 1 for each bromodomain of BRD4. His-tagged first (BD1: amino acids K57-E168) and second (BD2: amino acids E352-E168) bromodomains of BRD4 were expressed and purified. An Alexa647-labeled BET-inhibitor was used as the fluorescent probe in the assay.
# (§2) Compound dilution series were prepared in DMSO via a 3-fold serial dilution from 2.5 mM to 42 nM. Compounds were then diluted 6:100 in assay buffer (20 mM Sodium Phosphate, pH 6.0, 50 mM NaCl, 1 mM EDTA, 0.01% Triton X-100, 1 mM DTT) to yield 3× working solutions. Six microliters (μL) of the working solution was then transferred to white, low-volume assay plates (Costar #3673). A 1.5× assay mixture containing His-tagged bromodomain, Europium-conjugated anti-His antibody (Invitrogen PV5596) and the Alexa-647-conjugated probe molecule was also prepared. Twelve μL of this solution were added to the assay plate to reach a final volume of 18 μL. The final concentration of 1× assay buffer contains 2% DMSO, 50 μM−0.85 nM compound, 8 nM bromodomain, 1 nM antibody and 100 or 30 nM probe (for BDI or BDII, respectively). After a one-hour incubation at room temperature, TR-FRET ratios were determined using an Envision multilabel plate reader (Ex 340, Em 495/520).
# (§3) TR-FRET data were normalized to the means of 24 no-compound controls (“high”) and 8 controls containing 1 μM un-labeled probe (“low”). Percent inhibition was plotted as a function of compound concentration and the data were fit with the 4 parameter logistic equation to obtain IC50s Inhibition constants (Ki) were calculated from the IC50s, probe Kd and probe concentration. Typical Z′ values were between 0.65 and 0.75. The minimum significant ratio was determined to evaluate assay reproducibility (Eastwood et al., (2006) J Biomol Screen, 11: 253-261). The MSR was determined to be 2.03 for BDI and 1.93 for BDII, and a moving MSR (last six run MSR overtime) for both BDI and BDII was typically <3.
# BRD4 (BDI_K57-E168) = BRD4 (BDI_K57-E168) (Homo sapiens (Human), UniProt O60885); assay: TR-FRET bromodomain binding assay, BRD4 first bromodomain; details: His-tagged BD1, 100 nM Alexa647 probe
# Description: as §1, §2, §3
# [1] = test system: breast cancer cell line MX-1; assay: MX-1 cell line proliferation assay (3-day, Cell Titer Glo); format: cell-based, human; details: 72 hours, read-out: Cellular proliferation: EC50
# Description: The impact of compounds of the Examples on cancer cell proliferation was determined using the breast cancer cell line MX-1 (ATCC) in a 3-day proliferation assay. MX-1 cells were maintained in RPMI supplemented with 10% FBS at 37 C.° and an atmosphere of 5% CO2. For compound testing, MX-1 cells were plated in 96-well black bottom plates at a density of 5000 cells/well in 90 μl of culture media and incubated at 37° overnight to allow cell adhesion and spreading. Compound dilution series were prepared in DMSO via a 3-fold serial dilution from 3 mM to 0.1 μM. The DMSO dilution series were then diluted 1:100 in phosphate buffered saline, and 10 μL of the resulted solution were added to the appropriate wells of the MX-1 cell plate. The final compound concentrations in the wells were 3, 1, 0.3, 0.1, 0.03, 0.01, 0.003, 0.001, 0.0003 and 0.0001 μM.
# Luminescence readings from the Cell Titer Glo assay were normalized to the DMSO treated cells and analyzed using the GraphPad Prism software with sigmoidal curve fitting to obtain EC50s. The minimum significant ratio (MSR) was determined to evaluate assay reproducibility (Eastwood et al., (2006) J Biomol Screen, 11: 253-261).
Compound,Ki (BRD4 (BDII_E352-M457)) [nM],Ki (BRD4 (BDI_K57-E168)) [nM],"EC50 ([1]; Homo sapiens, MX1, MX-1 cells) [nM]",EC50 ([1]; MX-1 cells) [nM]
"Cc1[nH]c(-c2ccccc2OCC2CCOC2)c2c1C(=O)CCC2 (stereo not drawn) [Example 29, 3-methyl-1-[2-(tetrahydrofuran-3-ylmethoxy)phenyl]-2,5,6,7-tetrahydro-4H-isoindol-4-one]",2920,315,> 3000,
"Cc1[nH]c(-c2ccccc2OCC2CCCO2)c2c1C(=O)CCC2 (stereo not drawn) [Example 31, 3-methyl-1-[2-(tetrahydrofuran-2-ylmethoxy)phenyl]-2,5,6,7-tetrahydro-4H-isoindol-4-one]",4680,765,> 3000,
"Cc1[nH]c(-c2ccccc2OCC2CCOCC2)c2c1C(=O)CCC2 [Example 32, 3-methyl-1-[2-(tetrahydro-2H-pyran-4-ylmethoxy)phenyl]-2,5,6,7-tetrahydro-4H-isoindol-4-one]",1940,202,1880,
"Cc1[nH]c(-c2ccccc2OCCN2CCOCC2)c2c1C(=O)CCC2 [Example 33, 3-methyl-1-{2-[2-(morpholin-4-yl)ethoxy]phenyl}-2,5,6,7-tetrahydro-4H-isoindol-4-one]",8160,1040,> 3000,
"Cc1[nH]c(-c2ccccc2OCc2ccccn2)c2c1C(=O)CCC2 [Example 34, 3-methyl-1-[2-(pyridin-2-ylmethoxy)phenyl]-2,5,6,7-tetrahydro-4H-isoindol-4-one]",2620,1350,> 3000,
"Cc1[nH]c(-c2ccccc2OCc2cccnc2)c2c1C(=O)CCC2 [Example 37, 3-methyl-1-[2-(pyridin-3-ylmethoxy)phenyl]-2,5,6,7-tetrahydro-4H-isoindol-4-one]",4140,526,> 3000,
"Cc1[nH]c(-c2cc(N)ccc2Oc2ccccc2)c2c1C(=O)CCC2 [Example 39, 1-(5-amino-2-phenoxyphenyl)-3-methyl-2,5,6,7-tetrahydro-4H-isoindol-4-one]",365,148,232,
"Cc1c2c(c(-c3cc(NS(C)(=O)=O)ccc3Oc3ccccc3)n1C)CCCC2=O [Example 41, N-[3-(2,3-dimethyl-4-oxo-4,5,6,7-tetrahydro-2H-isoindol-1-yl)-4-phenoxyphenyl]methanesulfonamide]",216,161,370,
"CC(=O)Nc1ccc(Oc2ccccc2)c(-c2c3c(c(C)n2C)C(=O)CCC3)c1 [Example 42, N-[3-(2,3-dimethyl-4-oxo-4,5,6,7-tetrahydro-2H-isoindol-1-yl)-4-phenoxyphenyl]acetamide]",1090,569,> 3000,
"Cc1[nH]c(-c2cc(N)ccc2Sc2ccccc2)c2c1C(=O)CCC2 [Example 43, 1-[5-amino-2-(phenylsulfanyl)phenyl]-3-methyl-2,5,6,7-tetrahydro-4H-isoindol-4-one]",568,1820,> 3000,
"Cc1[nH]c(-c2cc(NS(C)(=O)=O)ccc2Sc2ccccc2)c2c1C(=O)CCC2 [Example 44, N-[3-(3-methyl-4-oxo-4,5,6,7-tetrahydro-2H-isoindol-1-yl)-4-(phenylsulfanyl)phenyl]methanesulfonamide]",37,67,645,
"Cc1[nH]c(-c2cc(N)ccc2Oc2ccc(F)cc2F)c2c1C(=O)CCC2 [Example 45, 1-[5-amino-2-(2,4-difluorophenoxy)phenyl]-3-methyl-2,5,6,7-tetrahydro-4H-isoindol-4-one]",198,40,329,
"Cc1[nH]c(-c2cc(NS(=O)(=O)CC(F)(F)F)ccc2Oc2ccc(F)cc2F)c2c1C(=O)CCC2 [Example 48, N-[4-(2,4-difluorophenoxy)-3-(3-methyl-4-oxo-4,5,6,7-tetrahydro-2H-isoindol-1-yl)phenyl]-2,2,2-trifluoromethanesulfonamide]",43,68,,564
"Cc1[nH]c(-c2cc(NS(=O)(=O)N(C)C)ccc2Oc2ccc(F)cc2F)c2c1C(=O)CCC2 [Example 49, N′-[4-(2,4-difluorophenoxy)-3-(3-methyl-4-oxo-4,5,6,7-tetrahydro-2H-isoindol-1-yl)phenyl]-N,N-dimethylsulfuric Diamide]",192,43,364,
"CC(=O)Nc1ccc(Oc2ccc(F)cc2F)c(-c2[nH]c(C)c3c2CCCC3=O)c1 [Example 50, N-[4-(2,4-difluorophenoxy)-3-(3-methyl-4-oxo-4,5,6,7-tetrahydro-2H-isoindol-1-yl)phenyl]acetamide]",551,71,609,
"CCS(=O)(=O)Nc1ccc(OC2CCC(F)(F)CC2)c(-c2[nH]c(C)c3c2CCCC3=O)c1 [Example 52, N-{4-[(4,4-difluorocyclohexyl)oxy]-3-(3-methyl-4-oxo-4,5,6,7-tetrahydro-2H-isoindol-1-yl)phenyl}ethanesulfonamide]",88,9,184,
"CCNC(=O)c1ccc(Oc2ccccc2)c(-c2[nH]c(C)c3c2CCCC3=O)c1 [Example 55, N-ethyl-3-(3-methyl-4-oxo-4,5,6,7-tetrahydro-2H-isoindol-1-yl)-4-phenoxybenzamide]",511,77,1390,
"Cc1[nH]c(-c2cc(C(=O)NCC3CCCO3)ccc2Oc2ccccc2)c2c1C(=O)CCC2 (stereo not drawn) [Example 56, 3-(3-methyl-4-oxo-4,5,6,7-tetrahydro-2H-isoindol-1-yl)-4-phenoxy-N-(tetrahydrofuran-2-ylmethyl)benzamide]",653,68,734,
"Cc1[nH]c(-c2cccc(NS(C)(=O)=O)c2)c2c1C(=O)CC(C)(C)C2 [Example 64, N-[3-(3,6,6-trimethyl-4-oxo-4,5,6,7-tetrahydro-2H-isoindol-1-yl)phenyl]methanesulfonamide]",409,576,> 3000,
"Cc1[nH]c(-c2ccccc2Oc2ccccc2)c2c1C(=O)CC(C)C2 (stereo not drawn) [Example 65, 3,6-dimethyl-1-(2-phenoxyphenyl)-2,5,6,7-tetrahydro-4H-isoindol-4-one]",382,184,1780,
"Cc1[nH]c(-c2cc(NS(C)(=O)=O)ccc2Oc2ccccc2)c2c1C(=O)CC(C)C2 (stereo not drawn) [Example 67, N-[3-(3,6-dimethyl-4-oxo-4,5,6,7-tetrahydro-2H-isoindol-1-yl)-4-phenoxyphenyl]methanesulfonamide]",68,12,110,
"Cc1[nH]c(-c2cc(NS(C)(=O)=O)ccc2Oc2ccccc2)c2c1C(=O)CC(CC(C)C)C2 (stereo not drawn) [Example 69, N-{3-[3-methyl-6-(2-methylpropyl)-4-oxo-4,5,6,7-tetrahydro-2H-isoindol-1-yl]-4-phenoxyphenyl}methanesulfonamide]",2070,151,600,
"Cc1[nH]c(-c2cc(NS(C)(=O)=O)ccc2Oc2ccccc2)c2c1C(=O)CC(C(C)C)C2 (stereo not drawn) [Example 71, N-{3-[3-methyl-4-oxo-6-(propan-2-yl)-4,5,6,7-tetrahydro-2H-isoindol-1-yl]-4-phenoxyphenyl}methanesulfonamide]",926,375,950,
